Source: ChEMBL document CHEMBL5226324, “Exploring Translocator Protein (TSPO) Medicinal Chemistry: An Approach for Targeting Radionuclides and Boron Atoms to Mitochondria” (J Med Chem, 2021)

Tests used:
[1] = Displacement of [3H]flunitrazepam from CBR receptor in rat brain cortex membrane incubated for 20 mins by liquid scintillation spectrometer method; format: cell membranes, Cerebral cortex
[2] = molecular target: T1, Translocator protein (Homo sapiens, UniProt P30536); assay: Binding affinity to TSPO receptor (unknown origin)
[3] = molecular target: T2, Translocator protein (Rattus norvegicus, UniProt P16257); assay: Displacement of [3H]PK11195 from TSPO receptor in rat brain cortex membrane incubated for 120 mins by liquid scintillation spectrometer method; format: cell membranes, Cerebral cortex
[4] = molecular target: T1, Translocator protein; assay: Binding affinity to human TSPO
[5] = molecular target: T2, Translocator protein; assay: Displacement of [3H]PK11195 from TSPO receptor in rat brain cortex mitochondrial membrane incubated for 60 mins by liquid scintillation spectrometer method; format: cell membranes
[6] = Lipophilicity, log P of the compound at pH 7.4; format: physicochemical; settings: buffer
[7] = molecular target: T2, Translocator protein; assay: Displacement of [3H]PK11195 from TSPO receptor in rat brain cortex mitochondrial membrane by liquid scintillation spectrometer method; format: cell membranes
[8] = Binding affinity to CBR (unknown origin); parameters: species or system Homo sapiens
[9] = Metabolic stability in rat brain assessed as parent compound remaining after 30 mins by radio-HPLC analysis; format: ADME, tissue-based; settings: read-out: Stability

T1 sequence (P30536 whole entry): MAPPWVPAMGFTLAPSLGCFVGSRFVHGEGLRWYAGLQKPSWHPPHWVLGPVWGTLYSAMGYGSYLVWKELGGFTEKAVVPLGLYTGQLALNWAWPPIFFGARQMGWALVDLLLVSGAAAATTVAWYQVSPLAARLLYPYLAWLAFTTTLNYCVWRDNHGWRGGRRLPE
T2 sequence (P16257 whole entry, looked up): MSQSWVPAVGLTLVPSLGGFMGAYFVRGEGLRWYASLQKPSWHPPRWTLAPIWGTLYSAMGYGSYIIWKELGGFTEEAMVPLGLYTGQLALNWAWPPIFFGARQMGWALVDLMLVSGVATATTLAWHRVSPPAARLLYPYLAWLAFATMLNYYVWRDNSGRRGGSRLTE

For `CCCN(CCC)C(=O)/C=C1\c2nc3ccccc3cc2C(=O)N1c1ccc(Cl)cc1`, the IC50 ([1]; read-out: IC50) was > 1000 nM.

For `CCCCCCN(CCCCCC)C(=O)CC1c2ncccc2C(=O)N1c1ccc(Cl)cc1` (stereo not given), the IC50 ([1]; read-out: IC50) was > 1000 nM.

In the case of `CCCN(CCC)C(=O)/C=C1\c2ncccc2C(=O)N1c1ccc(Cl)cc1`, the IC50 ([1]; read-out: IC50) is reported as > 1000 nM.

For `CCCCCCN(CCCCCC)C(=O)/C=C1\c2ncccc2C(=O)N1c1ccc(Cl)cc1`, the IC50 ([1]; read-out: IC50) was > 1000 nM.

Compound `CCN(CC)C(=O)[C@H]1CCCc2c1c1c(OC)cccc1n2CC[18F]` has a Ki [2] of 2.4 nM.

With `CCCCCCN(CCCCCC)C(=O)/C=C1\c2nc3ccccc3cc2C(=O)N1c1ccc(Cl)cc1` the IC50 ([1]; read-out: IC50) was > 1000 nM.

In the case of `CCCCCCN(CCCCCC)C(=O)CC1c2nc3ccccc3cc2C(=O)N1c1ccc(Cl)cc1` (stereo not given), the IC50 ([1]; read-out: IC50) is reported as > 1000 nM.

In the case of `O=C1c2cccnc2CN1c1ccc(Cl)cc1`, the IC50 ([1]; read-out: IC50) is reported as > 1000 nM.

Work on `CCCN(CCC)C(=O)CC1c2ncccc2C(=O)N1c1ccc(Cl)cc1` (stereo not given) yielded an IC50 ([1]; read-out: IC50) of 860 nM.

In the case of `CCCCN1Cc2c(nc3ccccc3c2-c2ccccc2)C1=O`, the IC50 [3] is reported as > 10000 nM.

In the case of `CN(Cc1ccccc1)C(=O)c1nc2ccccc2c2c1CCOc1ccccc1-2`, the IC50 [3] is reported as 10 nM.

Compound `CCC(C)N(C)C(=O)c1cc2ccccc2c(-c2ccccc2[123I])n1` (stereo not given) has a Kd [4] of 10 nM.

`CCN(CC)C(=O)Cc1c(-c2ccc([123I])cc2)nc2ccc(Cl)cn12` showed a Kd [5] of 3.84 nM.

In the case of `CCCN(CCC)C(=O)CC1c2nc3ccccc3cc2C(=O)N1c1ccccc1` (stereo not given), the IC50 [3] is reported as > 1000 nM and the IC50 ([1]; read-out: IC50) is reported as > 1000 nM.

With `CCCCN1Cc2c(nc3ccccc3c2-c2ccccc2F)C1=O` the IC50 [3] was > 10000 nM.

With `CC(=O)N(Cc1ccccc1OCC[18F])c1cnccc1Oc1ccccc1` the logD [6] was 2.99 and the Ki [7] was 0.07 nM.

In the case of `CCCN(CCC)C(=O)Cc1c(-c2ccc(Cl)cc2)[nH]c2ccc(Cl)cc12`, the IC50 ([1]; read-out: IC50) is reported as > 1000 nM.

`CCCN(CCC)C(=O)Cc1c(-c2ccc(Cl)cc2)nc2ccc(Cl)cn12` [ALPIDEM] gave a Ki [8] of 1 nM, an IC50 [3] of 0.5 nM and an IC50 ([1]; read-out: IC50) of 1 nM.

`CN1C(=O)CN=C(c2ccccc2)c2cc(Cl)ccc21` [DIAZEPAM] gave an IC50 [1] of 5.6 nM.

For `CCN(CC)C(=O)Cc1c(-c2ccc(OCCF)cc2)nn2c(C)cc(C)nc12` [DPA-714], the remaining at 0.5 h [9] was < 3%.

For `CN1C(=O)CN=C(c2ccc(Cl)cc2)c2cc(Cl)ccc21` [RO-54864], the Kd [2] was 1.1 nM.
